# Test results: patent US9962341B2, “Active pharmaceutical ingredient (API) comprising cannabinoids for use in the treatment of cancer” (GW Pharma Limited, priority 2014, dated 2018)
# System: HepG2
# Test: Cell viability (CellTiter-Blue, 72 h), HepG2 liver cancer cells
# Format: cell-based
# Conditions: Homo sapiens, HepG2, 72 h, read-out: IC50 values
# Method: The cell lines tested in this Example were as follows. Breast cancer: MDA-MB-231; SK-BR3; and BT474. Liver cancer: HepG2.
# (§1) The phytocannabinoids were tested alone and in various ratioed combinations in media containing final concentrations of 10% and 1% foetal bovine serum at 72 h for the breast and prostate cancer lines and 1% foetal bovine serum for the liver cancer line HepG2.
# Each tumour cell line was maintained in vitro in RPMI 1640+10% heat inactivated FBS and 2 mM L-glutamine (growth media) at 37° C. in 5% CO2 and humidified conditions. The cells were harvested, washed, re-suspended into growth medium and counted. The cells were re-suspended into assay media (RPMI 1640+5% heat inactivated FBS+ and 2 mM L-glutamine) at 8×104-2×10^5 cells/ml (dependent upon cell type) and plated into the middle 240 wells of 384 well tissue culture plates (Corning CellBind, black-wall plates) 12.5 μl/well aliquots; 62.5 μl of growth media was aliquoted into the outer wells. There were 4 plates for each cell line. The plates were incubated overnight at 37° C., in 5% humidified CO2.
# The phytocannabinoid test compounds were prepared in 100% DMSO vehicle at a stock concentration of 10 mM.
# Starting with the 10 mM stock, the compounds were diluted to 125 μM in FBS-free growth media.
# These were diluted in FBS-free growth media to 125 μM before serial dilution.
# 5 volumes of CBD 10 mM stock was added to 1 volume of the other agent (also at 10 mM) and 4 volumes of DMSO. This made a final concentration of 5 mM:1 mM. This was then diluted in FBS-free growth media so the top concentration of CBD would be 125 μM (before serial dilution). Each compound and compound combination stock was serially diluted in FBS-free growth media (containing 1.25% v/v DMSO) from 125 μM to 41.7, 13.89, 4.63, 1.54, 0.514, 0.171, 0.057 and 0.019 μM (1.25× final assay concentrations). Vehicle was prepared at equivalent dilutions in assay media. The top final concentration of compound in the assay was always 100 μM so CBD5:1CBG was 100 μM CBD and 20 μM CBG.
# The plates were incubated for 72 h at 37° C. in 5% humidified CO2. To develop the plates, at 72 h, 10 μl of CellTiter-Blue™ reagent was added to each test/blank well. The plates were incubated at 37° C., 5% humidified CO2. Fluorescence was measured using a Flex II Station plate reader (570 nm excitation wavelength, 600 nm emission wavelength, 590 nm cut-off) after 3 h.
# The raw data values expressed in relative fluorescent units were normalised to the vehicle for each individual plate and any reduction in fluorescence indicated a decrease in viability.
# The data were analysed in GraphPad PRISM using a non-linear sigmoidal plot with variable slope (asymmetric five point linear regression) and where possible an IC50 value for each single compound and combination was generated.
row,Structure (SMILES),IC50 [µM]
1,"C=C(C)[C@@H]1CCC(C)=C[C@H]1c1c(O)cc(CCCCC)cc1O [CBD, Cannabidiol]",3.3
2,"C=C(C)[C@@H]1CCC(C)=C[C@H]1c1c(O)cc(CCCCC)c(C(=O)O)c1O [CBDA, Cannabidiolic acid]",7.4
3,"CCCCCc1cc(O)c(C/C=C(\C)CCC=C(C)C)c(O)c1 [CBG, Cannabigerol]",3.7
4,"CCCCCc1cc(O)c(C/C=C(\C)CCC=C(C)C)c(O)c1C(=O)O [CBGA, Cannabigerolic acid]",9.3
5,"CCCc1cc(O)c2c(c1)OC(C)(C)[C@@H]1CCC(C)=C[C@@H]21 [THCV, Tetrahydrocannabivarin]",7.2

# System: LNCAP cells compared to DU145 cells
# Test: Cell viability, prostate cancer lines LNCAP and DU145 (potency comparison)
# Format: cell-based
# Conditions: media containing 10% FBS
# Method: as §1
row,Structure (SMILES),fold more potent in LNCAP cells compared to DU145 cells [fold]
1,"CCCc1cc(O)c2c(c1)OC(C)(C)[C@@H]1CCC(C)=C[C@@H]21 [THCV, Tetrahydrocannabivarin]",5
